{"source": "patent US20260225997A1", "about": "“IONIZABLE AMINE LIPIDS” (Intellia Therapeutics, Inc., priority 2018, published 2026)", "key": {"TTR [1]": {"system": "TTR", "assay": "TTR editing in mouse liver by NGS after i.v. LNP delivery of Cas9 mRNA and sgRNA", "assay_type": "in vivo", "conditions": "CD-1 female mice", "procedure": "Preparations of various LNP compositions were prepared with amine lipids. In assays for percent liver editing in mice, Cas9 mRNA and chemically modified sgRNA were formulated in LNPs, at either a 1:1 w/w ratio or a 1:2 w/w ratio. LNPs are formulated with a composition of a given ionizable lipid (e.g. an amine lipid), DSPC, cholesterol, and PEG-2k-DMG, with a 6.0 N:P ratio.\n(§1) CD-1 female mice, ranging from 6-10 weeks of age were used in each study. Animals were weighed and grouped according to body weight for preparing dosing solutions based on group average weight. LNPs were dosed via the lateral tail vein in a volume of 0.2 mL per animal (approximately 10 mL per kilogram body weight). The animals were periodically observed post dose for adverse effects for at least 24 hours post dose. Animals were euthanized at 6 or 7 days by exsanguination via cardiac puncture under isoflurane anesthesia. Blood was collected into serum separator tubes or into tubes containing buffered sodium citrate for plasma as described herein. For studies involving in vivo editing, liver tissue was collected from each animal for DNA extraction and analysis.\nCohorts of mice were measured for liver editing by Next-Generation Sequencing (NGS).\nIn brief, to quantitatively determine the efficiency of editing at the target location in the genome, genomic DNA was isolated and deep sequencing was utilized to identify the presence of insertions and deletions introduced by gene editing.\nPCR primers were designed around the target site (e.g., B2M), and the genomic area of interest was amplified. Additional PCR was performed according to the manufacturer's protocols (Illumina) to add the necessary chemistry for sequencing. The amplicons were sequenced on an Illumina MiSeq instrument. The reads were aligned to the […] after eliminating those having low quality scores. The resulting files containing the reads were mapped to the reference genome (BAM files), where reads that overlapped the target region of interest were selected and the number of wild type reads versus the number of reads which contain an insertion, substitution, or deletion was calculated.\nThe editing percentage (e.g., the “editing efficiency” or “percent editing”) is defined as the total number of sequence reads with insertions or deletions over the total number of sequence reads, including wild type.\nCD-1 female mice were dosed i.v. at 0.1 mpk or 0.3 mpk. At 6 days post-dose, animals were sacrificed. For animals dosed with G282 targeting TTR, blood and the liver were collected and serum TTR and editing were measured. For animals dosed with G650 targeting B2M, liver was collected and editing was measured."}, "TTR [2]": {"system": "TTR", "assay": "Transthyretin (TTR) ELISA analysis of mouse serum after LNP dosing", "assay_type": "in vivo", "conditions": "for response vs control in vivo at 0.1 mg/kg / inhibition in vivo at 0.03 mg/kg / response vs control in vivo at 0.03 mg/kg: Mus musculus, iv; for response vs control in vivo at 0.1 mg/kg / response vs control in vivo at 0.03 mg/kg: read-out: Serum TTR % TSS; for inhibition in vivo at 0.03 mg/kg: read-out: Serum TTR (% KD)", "procedure": "as §1\nCD-1 female mice were dosed i.v. at 0.1 mpk or 0.3 mpk. […] For animals dosed with G282 targeting TTR, blood and the liver were collected and serum TTR and editing were measured. For animals dosed with G650 targeting B2M, liver was collected and editing was measured.\nBlood was collected and the serum was isolated as indicated. The total mouse TTR serum levels were determined using a Mouse Prealbumin (Transthyretin) ELISA Kit (Aviva Systems Biology, Cat. OKIA00111). Briefly, sera were serial diluted with kit sample diluent to a final dilution of 10,000-fold for 0.1 mpk dose and 2,500-fold for 0.3 mpk. This diluted sample was then added to the ELISA plates and the assay was then carried out according to directions."}, "[3]": {"assay": "pKa measurement of unformulated amine lipid (fluorescence, method of Jayaraman et al.)", "assay_type": "physicochemical", "conditions": "100 μM in 0.1 M phosphate buffer pH 4.5-9.0", "procedure": "The pKa of each amine lipid was determined according to the method in Jayaraman, et al. (Angewandte Chemie, 2012) with the following adaptations. […] Lipid was diluted to 100 μM in 0.1 M phosphate buffer (Boston Bioproducts) where the pH ranged from 4.5-9.0. Fluorescence intensity was measured using excitation and emission wavelengths of 321 nm and 448 nm."}, "[4]": {"conditions": "Example 61: 0.1 mpk i.v., 7 days post-dose, G282 1:1"}, "[5]": {"conditions": "Example 55: 0.1 mpk i.v., 7 days post-dose, G282 1:1"}, "[6]": {"conditions": "Example 64: Dose 0.03 mpk (table) i.v., 7 days post-dose, G282 1:1"}, "[7]": {"conditions": "168 h, Example 64: Dose 0.03 mpk (table) i.v., 7 days post-dose, G282 1:1"}, "[8]": {"conditions": "Example 58: 0.1 mpk i.v., 6 days post-dose, G282 1:1"}, "[9]": {"conditions": "Example 63: 0.03 mpk i.v., 7 days post-dose, G282 1:1"}, "[10]": {"conditions": "Example 63: 0.1 mpk i.v., 7 days post-dose, G282 1:1"}, "[11]": {"conditions": "168 h, Example 63: 0.03 mpk i.v., 7 days post-dose, G282 1:1"}, "[12]": {"conditions": "168 h, Example 63: 0.1 mpk i.v., 7 days post-dose, G282 1:1"}, "[13]": {"conditions": "Example 60: 0.1 mpk i.v., 6 days post-dose, G502 1:2"}}, "note": "Read-outs that look alike come from different tables or passages of the source."}
{"smiles": "CCCCCCCCCOC(=O)CCCCCCCN(CCO)CCCCCCCCC(OCCCCCCCC)OCCCCCCCC", "note": "[Compound 9, nonyl 8-((9,9-bis(octyloxy)nonyl)(2-hydroxyethyl)amino octanoate]", "values": [{"measurement": "Editing Mean % Indel", "setting": "TTR [1]; [4]", "value": 52.1, "unit": "%"}, {"measurement": "Serum TTR", "setting": "TTR [2]; [4]", "value": 218, "unit": "µg/mL"}, {"measurement": "response vs control in vivo at 0.1 mg/kg", "setting": "TTR [2]; 168 h, Example 61: 0.1 mpk i.v., 7 days post-dose, G282 1:1", "value": 17, "unit": "%"}, {"measurement": "pKa", "setting": "[3]", "value": 6.12}]}
{"smiles": "CCCCCCCCCOC(=O)CCCCCCCN(CCO)CCCCCCCC(OCCCCCCC)OCCCCCCC", "note": "[Compound 7, nonyl 8-((8,8-bis(heptyloxy)octyl)(2-hydroxyethyl)amino)octanoate]", "values": [{"measurement": "% Editing (TTR, liver)", "setting": "TTR [1]; [5]", "value": 50, "unit": "%"}, {"measurement": "Serum TTR", "setting": "TTR [2]; [5]", "value": 234, "unit": "µg/mL"}, {"measurement": "Serum TTR (% TSS)", "setting": "TTR [2]; [5]", "value": 21, "unit": "% TSS"}, {"measurement": "pKa", "setting": "[3]", "value": 6.16}]}
{"smiles": "CCCCCCCCCOC(=O)CCCCCCCN(CCCCCCC(OCCCCCCCC)OCCCCCCCC)CCCNC(C)=O", "note": "[Compound 42, nonyl 8-((3-acetamidopropyl)(7,7-bis(octyloxy)heptyl)amino)octanoate]", "values": [{"measurement": "Editing Mean % Indel", "setting": "TTR [1]; [6]", "value": 9.6, "unit": "%"}, {"measurement": "Serum TTR", "setting": "TTR [2]; [6]", "value": 571.6, "unit": "µg/mL"}, {"measurement": "inhibition in vivo at 0.03 mg/kg", "setting": "TTR [2]; [7]", "value": 0.2, "unit": "%"}, {"measurement": "pKa", "setting": "[3]", "value": 7.19}]}
{"smiles": "CCCCCCCCCCOC(=O)CCCCCCN(CCO)CCCCCCCC(OCCCCCCCC)OCCCCCCCC", "note": "[Compound 12, decyl 7-((8,8-bis(octyloxy)octyl)(2-hydroxyethyl)amino)heptanoate]", "values": [{"measurement": "Editing Mean % Indel", "setting": "TTR [1]; [8]", "value": 33.0, "unit": "%"}, {"measurement": "Serum TTR", "setting": "TTR [2]; [8]", "value": 490, "unit": "µg/mL"}, {"measurement": "response vs control in vivo at 0.1 mg/kg", "setting": "TTR [2]; 144 h, Example 58: 0.1 mpk i.v., 6 days post-dose, G282 1:1", "value": 50, "unit": "%"}, {"measurement": "pKa", "setting": "[3]", "value": 6.38}]}
{"smiles": "CCCCCCCCOC(CCCCCCCN(CCO)CCCCCCCC(=O)OC(C)CCCCCC)OCCCCCCCC", "note": "(centres unmarked) [Compound 27, octan-2-yl 8-((8,8-bis(octyloxy)octyl)(2-hydroxyethyl)amino)octanoate]", "values": [{"measurement": "Editing Mean % Indel", "setting": "TTR [1]; [9]", "value": 27.86, "unit": "%"}, {"measurement": "Editing Mean % Indel", "setting": "TTR [1]; [10]", "value": 57.10, "unit": "%"}, {"measurement": "Serum TTR", "setting": "TTR [2]; [9]", "value": 497.99, "unit": "µg/mL"}, {"measurement": "Serum TTR", "setting": "TTR [2]; [10]", "value": 197.22, "unit": "µg/mL"}, {"measurement": "response vs control in vivo at 0.03 mg/kg", "setting": "TTR [2]; [11]", "value": 61.7, "unit": "%"}, {"measurement": "response vs control in vivo at 0.1 mg/kg", "setting": "TTR [2]; [12]", "value": 24.4, "unit": "%"}, {"measurement": "pKa", "setting": "[3]", "value": 6.41}]}
{"smiles": "CCCCCCCCOC(CCCCCCCN(CCO)CCCCCCCC(=O)OC(CC)CCCC)OCCCCCCCC", "note": "(centres unmarked) [Compound 30, heptan-3-yl 8-((8,8-bis(octyloxy)octyl)(2-hydroxyethyl)amino)octanoate]", "values": [{"measurement": "Editing Mean % Indel", "setting": "TTR [1]; [9]", "value": 27.64, "unit": "%"}, {"measurement": "Editing Mean % Indel", "setting": "TTR [1]; [10]", "value": 62.48, "unit": "%"}, {"measurement": "Serum TTR", "setting": "TTR [2]; [9]", "value": 514.23, "unit": "µg/mL"}, {"measurement": "Serum TTR", "setting": "TTR [2]; [10]", "value": 125.89, "unit": "µg/mL"}, {"measurement": "response vs control in vivo at 0.03 mg/kg", "setting": "TTR [2]; [11]", "value": 63.7, "unit": "%"}, {"measurement": "response vs control in vivo at 0.1 mg/kg", "setting": "TTR [2]; [12]", "value": 15.6, "unit": "%"}, {"measurement": "pKa", "setting": "[3]", "value": 6.48}]}
{"smiles": "CCCCCCCCCOC(=O)CCCCCCCN(CCO)CCCCCCCC(OC(C)CCCCCC)OC(C)CCCCCC", "note": "(centres unmarked) [Compound 25, nonyl 8-[8,8-bis(1-methylheptoxy)octyl-(2-hydroxyethyl)amino]octanoate]", "values": [{"measurement": "Editing Mean % Indel", "setting": "TTR [1]; [13]", "value": 15.3, "unit": "%"}, {"measurement": "Serum TTR", "setting": "TTR [2]; [13]", "value": 985, "unit": "µg/mL"}, {"measurement": "response vs control in vivo at 0.1 mg/kg", "setting": "TTR [2]; 144 h, Example 60: 0.1 mpk i.v., 6 days post-dose, G502 1:2", "value": 69, "unit": "%"}, {"measurement": "pKa", "setting": "[3]", "value": 6.1}]}
{"smiles": "CCCCCCCCCOC(=O)CCCCCCCN(CCCCCCC(OCCCCCCCC)OCCCCCCCC)CCNC(C)=O", "note": "[Compound 41, nonyl 8-((2-acetamidoethyl)(7,7-bis(octyloxy)heptyl)amino)octanoate]", "values": [{"measurement": "Editing Mean % Indel", "setting": "TTR [1]; [6]", "value": 2.4, "unit": "%"}, {"measurement": "Serum TTR", "setting": "TTR [2]; [6]", "value": 567.1, "unit": "µg/mL"}, {"measurement": "inhibition in vivo at 0.03 mg/kg", "setting": "TTR [2]; [7]", "value": 1, "unit": "%"}, {"measurement": "pKa", "setting": "[3]", "value": 6.82}]}
